One series can be described thus: in vitro. Particulars: African green monkey.
Another series can be described thus: in vivo. Details: species or system rats. Particulars: male, Sprague-Dawley, rat, iv. On the procedure: Pharmacokinetic Studies: Catheterized male Sprague-Dawley rats (jugular vein alone for oral study and jugular vein and femoral vein for intravenous study) weighing approximately 225 g were obtained from Harlan Bioscience (Indianapolis, Ind., United States of America). The animals were kept on a 12 hr light/dark cycle with food and water available ad libitum. Groups of rats (n=4) received either an intravenous (IV) or oral dose of a test compound at a dose level of 10 mg/kg or 100 mg/kg, respectively. For oral administration, the animals were fasted overnight and until 4 hr after administration of test compound. Serial blood samples (approx. 250 μL) were collected pre-dose and at predetermined time points post-dose until 48 hours. Plasma was separated immediately by centrifugation (10,000 rpm for 10 min at 4° C.) and stored at −80° C. until analysis. Urine specimens were collected for a period of 48 hours following drug administration. The study protocol was approved by the institutional animal care and use committee of the University of Tennessee Health Science Center (Memphis, Tenn., United States of America).
Sample Preparation and LC-MS/MS Assay: A calibration curve ranging from 7.81-1000 μg/L was constructed for each test compound by spiking the test compound into 50 μL of blank plasma. […] Plasma proteins were precipitated by the addition of four volumes of ice cold methanol containing IS. These samples were vortexed and kept on ice for 20 minutes. Following this, the samples were centrifuged at 10,000 rpm for 10 minutes at 4° C. and the supernatants were diluted if necessary and injected onto LC-MS/MS for analysis. Chromatographic separations were carried out using a Shimadzu liquid chromatograph (Shimadzu Corporation, Kyoto, Japan) consisting of two pumps, online degasser, system controller and a CTC Leap auto sampler (Leap Technologies, Carrboro, N.C., United States of America). A gradient of methanol and 10 mM ammonium acetate at pH 3.5 was used at a flow rate of 0.4 mL/min. A Phenomenex® Luna 3μ HILIC, 100×4.6 mm column (Phenomenex, Torrance, Calif., United States of America) protected with a guard column was used for the separation. 10 μL of sample was injected onto the column and the eluate was led directly into an API 3000 triple-quadrupole mass spectrometer (Applied Biosystems ABI/MDS-Sciex, Foster City, Calif., United States of America) equipped with an electrospray ion source. The instrument was operated in the positive ion mode with nebulizer gas (NEB) at 7 psi, curtain gas (CUR) at 8 psi, collision gas (CAD) at 10 psi, ion spray voltage (IS) at +4000 V and temperature (TEM) at 500° C. The resulting multiple reaction monitoring chromatograms were used for quantification using Analyst software version 1.4.1 (Applied Biosystems ABI/MDS-Sciex, Foster City, Calif., United States of America).
Pharmacokinetic Data Analysis: Plasma concentration-time data for oral dose were analyzed by non-compartmental analysis. A two compartment open model with bolus input and first order output was used to analyze the IV plasma concentration-time data. The area under the plasma concentration-time curve from time 0 to infinity (AUCinf) was calculated by the trapezoidal rule with extrapolation to time infinity. Mean residence time (MRT), the average amount of time a particle remains in a compartment of system was calculated for IV dose using MRT=AUMCinf/AUCinf where AUMCinf is the area under the moment curve when the concentration-time curve is extrapolated to infinity. The systemic clearance (CL) was calculated using the equation CL=Doseiv/AUCinf iv, where Doseiv and AUCinf, iv are the IV dose and corresponding area under the plasma concentration-time curve from time 0 to infinity, respectively. An estimate of volume of distribution at steady state (Vss) was obtained from IV data using Vss=MRT*CL. […]

Where a name gives a salt, the structure may show the parent alone.

On to `CN[C@@H]1[C@H](O)[C@H](NC)C2O[C@]3(O)C(OC2[C@H]1O)O[C@H](C)C[C@H]3NC(=O)Cc1ccccn1` (stereo partly drawn) [Compound 1329, 3′-Dihydro-3′-deoxy-4(R)-(pyridin-2yl)acetylamino spectinomycin Dihydrochloride], for which the IC50 at 72 h in “in vitro” came out at 2180 µg/mL. Moreover, in “in vivo”, the clearance was 13.3 mL/min/kg, the “dose eliminated unchanged in the first 6 hours” value is on record as “approx. 40%”, the “excretion ratio (renal clearance to glomerular filtration rate)” value stood at 1.7 and the “fraction of dose excreted unchanged by the kidneys” value was found to be 0.46. Besides, the hepatic extraction ratio in “in vivo” was determined as 0.13. Besides, in “in vivo” (10 mg/kg), the MRT was roughly 5.3 h.

The values are drawn from US9284325B2, “Spectinamides as anti-tuberculosis agents” (UNIVERSITY OF TENNESSEE RESEARCH FOUNDATION, priority 2009, dated 2016).
